ChEMBL document CHEMBL1201862, “PubChem BioAssay data set” (2004)
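A five-concentration, 48-hour dose response in 96-well plates underlies each endpoint, interpolated linearly between surrounding concentrations. The concentration for 50% growth inhibition is given as GI50.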 The source made the active and inactive calls. No stated cut-off is given here; in the data, active = GI50 up to about 1.1 µM and inactive = higher.

What was measured:
Experiment in all cases: NCI tumour cell line growth inhibition, 48 h
HCC 2998 = system: HCC 2998
RXF 393 = system: RXF 393
NCI-H23 = system: NCI-H23
A549 = system: A549
SNB-75 = system: SNB-75
ACHN = system: ACHN
CCRF-CEM = system: CCRF-CEM
NCI-H460 = system: NCI-H460
U-251 = system: U-251
HOP-62 = system: HOP-62
PC-3 = system: PC-3
HL-60 = system: HL-60
HOP-92 = system: HOP-92
HCT-116 = system: HCT-116
TK-10 = system: TK-10
EKVX = system: EKVX
MCF7 = system: MCF7
NCI-H226 = system: NCI-H226
MOLT-4 = system: MOLT-4
M14 = system: M14
Hs-578T = system: Hs-578T
HT-29 = system: HT-29
Malme-3M = system: Malme-3M
OVCAR-5 = system: OVCAR-5
OVCAR-8 = system: OVCAR-8
K562 = system: K562
SR = system: SR
T47D = system: T47D
COLO 205 = system: COLO 205
RPMI-8226 = system: RPMI-8226
HCT-15 = system: HCT-15
A498 = system: A498
UACC-62 = system: UACC-62
IGROV-1 = system: IGROV-1
SK-MEL-2 = system: SK-MEL-2
SK-MEL-5 = system: SK-MEL-5
UO-31 = system: UO-31
MDA-MB-231 = system: MDA-MB-231
SK-MEL-28 = system: SK-MEL-28
SN12C = system: SN12C
SNB-19 = system: SNB-19
BT-549 = system: BT-549
UACC-257 = system: UACC-257
KM12 = system: KM12
786-0 = system: 786-0
MDA-N = system: MDA-N
SW-620 = system: SW-620
NCI-H522 = system: NCI-H522
NCI/ADR-RES = system: NCI/ADR-RES
SF-295 = system: SF-295
CAKI-1 = system: CAKI-1
OVCAR-3 = system: OVCAR-3
MDA-MB-435 = system: MDA-MB-435
DU-145 = system: DU-145
OVCAR-4 = system: OVCAR-4
LOX IMVI = system: LOX IMVI
SF-539 = system: SF-539
SF-268 = system: SF-268
SK-OV-3 = system: SK-OV-3

O=C(CC(=O)n1nc(-c2ccccc2)c(/N=N/c2ccc(Cl)cc2)c1-c1ccccc1)Nc1cccc(Cl)c1
GI50 (HCC 2998): > 100 µM (inactive) | GI50 (RXF 393): > 100 µM (inactive) | GI50 (NCI-H23): > 100 µM (inactive) | GI50 (A549): > 100 µM (inactive) | GI50 (SNB-75): 43.3 µM (inactive) | GI50 (ACHN): 63.8 µM (inactive) | GI50 (CCRF-CEM): 38.9 µM (inactive) | GI50 (NCI-H460): 34.1 µM (inactive) | GI50 (U-251): 40.9 µM (inactive) | GI50 (HOP-62): 38 µM (inactive) | GI50 (PC-3): 75 µM (inactive) | GI50 (HL-60): 28.5 µM (inactive) | GI50 (HOP-92): > 100 µM (inactive) | GI50 (HCT-116): 61.7 µM (inactive) | GI50 (TK-10): > 100 µM (inactive) | GI50 (EKVX): 25.3 µM (inactive) | GI50 (MCF7): > 10 µM (inactive) | GI50 (NCI-H226): 28.3 µM (inactive) | GI50 (MOLT-4): 35.9 µM (inactive) | GI50 (M14): 70.1 µM (inactive) | GI50 (Hs-578T): > 100 µM (inactive) | GI50 (HT-29): 75.7 µM (inactive) | GI50 (Malme-3M): 42.9 µM (inactive) | GI50 (OVCAR-5): 96.4 µM (inactive) | GI50 (OVCAR-8): 81.1 µM (inactive) | GI50 (K562): 46.7 µM (inactive) | GI50 (SR): 37.8 µM (inactive) | GI50 (T47D): > 100 µM (inactive) | GI50 (COLO 205): > 100 µM (inactive) | GI50 (RPMI-8226): 65.6 µM (inactive) | GI50 (HCT-15): 54.6 µM | GI50 (A498): 34.3 µM (inactive) | GI50 (UACC-62): 73.8 µM (inactive) | GI50 (IGROV-1): 5.25 µM (inactive) | GI50 (SK-MEL-2): > 100 µM (inactive) | GI50 (SK-MEL-5): > 100 µM (inactive) | GI50 (UO-31): 30.5 µM (inactive) | GI50 (MDA-MB-231): 54.7 µM (inactive) | GI50 (SK-MEL-28): > 100 µM (inactive) | GI50 (SN12C): 60.5 µM (inactive) | GI50 (SNB-19): 41.1 µM (inactive) | GI50 (BT-549): > 100 µM (inactive) | GI50 (UACC-257): > 100 µM (inactive) | GI50 (KM12): > 100 µM (inactive) | GI50 (786-0): 59.6 µM (inactive) | GI50 (MDA-N): > 100 µM (inactive) | GI50 (SW-620): > 100 µM (inactive)

O=C1Nc2ccccc2/C1=C1/Nc2ccccc2/C1=N/OCCO
GI50 (HCC 2998): 24.8 µM (inactive) | GI50 (RXF 393): 5.85 µM (inactive) | GI50 (NCI-H522): > 100 µM (inactive) | GI50 (NCI-H23): 0.656 µM (active) | GI50 (A549): 1.52 µM (inactive) | GI50 (NCI/ADR-RES): > 100 µM (inactive) | GI50 (SNB-75): > 100 µM (inactive) | GI50 (ACHN): 0.352 µM (active) | GI50 (CCRF-CEM): > 100 µM (inactive) | GI50 (NCI-H460): 0.824 µM (active) | GI50 (U-251): > 100 µM (inactive) | GI50 (SF-295): 17.3 µM (inactive) | GI50 (HOP-62): > 100 µM (inactive) | GI50 (PC-3): 15.1 µM (inactive) | GI50 (HL-60): 3.87 µM (inactive) | GI50 (HOP-92): > 100 µM (inactive) | GI50 (HCT-116): 0.481 µM (active) | GI50 (TK-10): 9.73 µM (inactive) | GI50 (EKVX): 0.662 µM (active) | GI50 (CAKI-1): 0.175 µM (active) | GI50 (MCF7): 1.86 µM (inactive) | GI50 (NCI-H226): > 100 µM (inactive) | GI50 (MOLT-4): 0.8 µM (active) | GI50 (OVCAR-3): 1.51 µM (inactive) | GI50 (M14): 2.39 µM (inactive) | GI50 (Hs-578T): 6.14 µM (inactive) | GI50 (HT-29): 2.44 µM (inactive) | GI50 (Malme-3M): 5.53 µM (inactive) | GI50 (MDA-MB-435): 2.47 µM (inactive) | GI50 (OVCAR-5): > 100 µM (inactive) | GI50 (OVCAR-8): > 100 µM (inactive) | GI50 (K562): > 100 µM (inactive) | GI50 (SR): 0.546 µM (active) | GI50 (T47D): 5.62 µM (inactive) | GI50 (COLO 205): 3.99 µM (inactive) | GI50 (RPMI-8226): > 100 µM (inactive) | GI50 (DU-145): 0.713 µM (active) | GI50 (HCT-15): 0.433 µM | GI50 (A498): 0.213 µM (active) | GI50 (UACC-62): 10.5 µM (inactive) | GI50 (IGROV-1): 0.274 µM (active) | GI50 (SK-MEL-2): 0.457 µM (active) | GI50 (SK-MEL-5): 0.771 µM (active) | GI50 (OVCAR-4): > 100 µM (inactive) | GI50 (UO-31): 0.363 µM (active) | GI50 (LOX IMVI): 0.69 µM (active) | GI50 (SK-MEL-28): > 100 µM (inactive) | GI50 (SN12C): 29 µM (inactive) | GI50 (SF-539): > 100 µM (inactive) | GI50 (SNB-19): > 100 µM (inactive) | GI50 (SF-268): > 100 µM (inactive) | GI50 (SK-OV-3): 0.299 µM (active) | GI50 (BT-549): 50.9 µM (inactive) | GI50 (UACC-257): > 100 µM (inactive) | GI50 (KM12): 0.149 µM (active) | GI50 (786-0): 13 µM (inactive) | GI50 (MDA-N): 23 µM (inactive) | GI50 (SW-620): 14 µM (inactive)

Cc1ccc(N(C)S(=O)(=O)c2ccc([N+](=O)[O-])cc2)cc1
GI50 (HCC 2998): 93.5 µM (inactive) | GI50 (RXF 393): > 100 µM (inactive) | GI50 (NCI-H522): > 100 µM (inactive) | GI50 (A549): > 100 µM (inactive) | GI50 (NCI/ADR-RES): 97.9 µM (inactive) | GI50 (SNB-75): > 100 µM (inactive) | GI50 (ACHN): > 100 µM (inactive) | GI50 (CCRF-CEM): > 100 µM (inactive) | GI50 (NCI-H460): 74 µM (inactive) | GI50 (U-251): > 100 µM (inactive) | GI50 (SF-295): 92.3 µM (inactive) | GI50 (HOP-62): > 100 µM (inactive) | GI50 (PC-3): 34.4 µM (inactive) | GI50 (HL-60): 54.6 µM (inactive) | GI50 (HCT-116): > 100 µM (inactive) | GI50 (TK-10): > 100 µM (inactive) | GI50 (EKVX): > 100 µM (inactive) | GI50 (CAKI-1): > 100 µM (inactive) | GI50 (MCF7): > 100 µM (inactive) | GI50 (NCI-H226): 48.9 µM (inactive) | GI50 (MOLT-4): 34.9 µM (inactive) | GI50 (OVCAR-3): > 100 µM (inactive) | GI50 (M14): 49.8 µM (inactive) | GI50 (Hs-578T): > 100 µM (inactive) | GI50 (HT-29): 74.6 µM (inactive) | GI50 (Malme-3M): 38.2 µM (inactive) | GI50 (MDA-MB-435): 81.8 µM (inactive) | GI50 (OVCAR-5): > 100 µM (inactive) | GI50 (OVCAR-8): > 100 µM (inactive) | GI50 (K562): 41 µM (inactive) | GI50 (SR): 78.2 µM (inactive) | GI50 (COLO 205): > 100 µM (inactive) | GI50 (RPMI-8226): 59 µM (inactive) | GI50 (DU-145): > 100 µM (inactive) | GI50 (HCT-15): 91.4 µM | GI50 (UACC-62): 52.5 µM (inactive) | GI50 (IGROV-1): > 100 µM (inactive) | GI50 (SK-MEL-2): > 100 µM (inactive) | GI50 (SK-MEL-5): > 10 µM (inactive) | GI50 (OVCAR-4): > 100 µM (inactive) | GI50 (UO-31): 44.3 µM (inactive) | GI50 (MDA-MB-231): 85.3 µM (inactive) | GI50 (LOX IMVI): > 100 µM (inactive) | GI50 (SK-MEL-28): > 100 µM (inactive) | GI50 (SN12C): > 100 µM (inactive) | GI50 (SF-539): > 100 µM (inactive) | GI50 (SNB-19): > 100 µM (inactive) | GI50 (SF-268): > 100 µM (inactive) | GI50 (SK-OV-3): > 100 µM (inactive) | GI50 (BT-549): > 100 µM (inactive) | GI50 (UACC-257): > 100 µM (inactive) | GI50 (KM12): 74.6 µM (inactive) | GI50 (786-0): > 100 µM (inactive) | GI50 (MDA-N): > 100 µM (inactive) | GI50 (SW-620): > 100 µM (inactive)
